Among the data in ChEMBL document CHEMBL4316582, “Nitro-Group-Containing Drugs” (J Med Chem, 2019) are MIC values, retold here.

≈ marks a conversion by molar mass, not a printed value.

For the assay, the system named is Mycobacterium tuberculosis. In words: Antitubercular activity against multidrug-resistant Mycobacterium tuberculosis. In kind it is functional.
In general, MIC refers to the lowest concentration that inhibits growth of the organism. The low end stands for a more susceptible organism, the high end for a less susceptible organism. In turn, `O=[N+]([O-])C1CN2C[C@H](OCc3ccc(OC(F)(F)F)cc3)COC2=N1` (stereo partly drawn) yielded an MIC of 0.039 to 0.531 µg/mL (≈ 0.108 to 1.47 µM).

Molecule `[O-]/[N+](O)=C1/CN2C[C@H](OCc3ccc(OC(F)(F)F)cc3)COC2=N1` registered a minimal inhibitory concentration (MIC) of 0.039 to 0.531 µg/mL (≈ 0.108 to 1.47 µM).

The molecule `FC(F)(F)Oc1ccc(CO[C@@H]2COc3nccn3C2)cc1` had an MIC of 0.039 to 0.531 µg/mL (≈ 0.124 to 1.69 µM).
